Test results from publication PMC6310130 (Molecular and biochemical parasitology, 2014).
Where a SMILES comes first, the peptide text is derived from it. [ ]: non-standard residue; d: D form. The star is where a group is joined. Sta = CC(C)C[C@H](N)[C@@H](O)CC(=O)O; Isovaleryl = CC(C)CC(=O)*

Target: Plasmepsin V (Plasmodium falciparum, UniProt Q8I6Z5)
Experiment: fluorogenic HRPII peptide cleavage assay, recombinant refolded enzyme, pH […]
Assay type: biochemical

Plasmepsin V, sequence (Q8I6Z5 81-521): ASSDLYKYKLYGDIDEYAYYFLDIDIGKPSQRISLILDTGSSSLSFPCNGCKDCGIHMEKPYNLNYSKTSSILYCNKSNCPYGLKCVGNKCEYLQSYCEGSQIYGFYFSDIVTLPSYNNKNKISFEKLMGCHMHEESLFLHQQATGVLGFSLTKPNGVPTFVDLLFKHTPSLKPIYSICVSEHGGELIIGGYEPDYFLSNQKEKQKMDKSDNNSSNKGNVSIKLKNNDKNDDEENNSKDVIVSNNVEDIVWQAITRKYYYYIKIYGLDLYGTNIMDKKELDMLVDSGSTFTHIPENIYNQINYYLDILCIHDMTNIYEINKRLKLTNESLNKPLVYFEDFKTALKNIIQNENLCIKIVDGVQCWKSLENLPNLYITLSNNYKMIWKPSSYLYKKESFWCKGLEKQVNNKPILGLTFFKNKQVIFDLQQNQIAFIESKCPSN

Molecule	IC50 [µM]
KNI-10743	44
KNI-10742	108
CC(C)CC(=O)N[C@H](C(=O)N[C@H](C(=O)N[C@@H](CC(C)C)[C@@H](O)CC(=O)N[C@@H](C)C(=O)N[C@@H](CC(C)C)[C@@H](O)CC(=O)O)C(C)C)C(C)C [pepstatin A] (Isovaleryl-VV[Sta]A[Sta]-OH)	22
